This note sets out measurements from US8524755B2 (priority 2009, dated 2013).

A value given as a limit tells only on which side of the number the result lay.

By inhibition is commonly meant the drop in the measured response relative to a control, in per cent. As usually defined, the EC50 is the concentration giving half of the maximal effect. Usually IC50 stands for the point on the concentration scale where inhibition reaches its midpoint.

For one data set, the system named is AMPA. As to the kind of experiment: Binding AMPA (ag). Also noted: species or system rat. As for the experimental part: (§1) Radioligand binding assay methods utilized to measure the activity of compounds of the invention will be familiar to those skilled in the art. In each assay case, the assay components such as, for example, the cell-type, ligand, reference compound and the like, will be familiar to practitioners of such an assay.
(§2) Analysis and Expression of Results: Compounds of the invention were tested in the biochemical assays and percent inhibition of specific binding was determined. The specific ligand binding to the receptors is defined as the difference between the total binding and the nonspecific binding determined in the presence of an excess of unlabelled ligand. The results are expressed as a percent inhibition of control specific binding (100−((measured specific binding/control specific binding)×100)) obtained in the presence of test compounds.

A further data set has as its system Muscarinic M (ns). As to the kind of experiment: Binding M (ns) (aa). More on the design: species or system rat. As for the experimental part: as §1, §2
The next data set concerns the target T1, Somatostatin sst5 (h) (Homo sapiens, UniProt P35346).
T1 construct: expressed in transfected cells; host or cells: CHO cells
As to the kind of experiment: Binding sst5 (h) (ag). Conditions: read-out: % Inhibition of Control Specific Binding @ 10 μM. As for the experimental part: as §1, §2

The next data set has as its system Progesterone PR (h). As to the kind of experiment: Binding PR (h) (ag). Also noted: species or system human. As for the experimental part: as §1, §2
For another data set, the target named is T2, hERG (Homo sapiens, UniProt Q12809).
T2 construct: expressed in transfected cells; host or cells: HEK-293 cells
As to the kind of experiment: Binding hERG (membrane preparation) (aa). Conditions: read-out: % Inhibition of Control Specific Binding @ 10 μM. As for the experimental part: as §1, §2
For orientation: Block of hERG is tested as a sign of cardiac risk.

For the next data set, the target named is T3, PDE1B (h) (Homo sapiens, UniProt Q01064).
T3 construct: host or cells: Sf9 cells
The experiment in a line: Enzyme assay PDE1B (h). The data set is classed as biochemical. Conditions: read-out: % Inhibition of Control Values @ 10 μM. The text has this:
(§3) The enzyme assays provided below will be familiar to those skilled in the art.
(§4) Analysis and Expression of Results: The results are expressed as a percent of control specific activity ((measured specific activity/control specific activity)×100) obtained in the presence of the test compounds.

A further data set deals with T4, PKCα (h) (Homo sapiens, UniProt P17252).
T4 construct: host or cells: insect cells
As to the kind of experiment: Enzyme assay PKCα (h). The data set is classed as biochemical. Conditions: read-out: % Inhibition of Control Values @ 10 μM.
Description: as §3, §4

A further data set addresses T5, GABA transaminase (Rattus norvegicus, UniProt P50554).
T5 construct: rat brain; from tissue; host or cells: rat brain
The experiment in a line: Enzyme assay GABA transaminase. In kind it is biochemical. Conditions: read-out: % Inhibition of Control Values @ 10 μM.
Description: as §3, §4

In the next data set the target is T6, Androgen Receptor (Homo sapiens, UniProt P10275).
T6 construct: expressed in transfected cells; host or cells: PathHunter NHRPro cell lines
T6 sequence (P10275 1-920): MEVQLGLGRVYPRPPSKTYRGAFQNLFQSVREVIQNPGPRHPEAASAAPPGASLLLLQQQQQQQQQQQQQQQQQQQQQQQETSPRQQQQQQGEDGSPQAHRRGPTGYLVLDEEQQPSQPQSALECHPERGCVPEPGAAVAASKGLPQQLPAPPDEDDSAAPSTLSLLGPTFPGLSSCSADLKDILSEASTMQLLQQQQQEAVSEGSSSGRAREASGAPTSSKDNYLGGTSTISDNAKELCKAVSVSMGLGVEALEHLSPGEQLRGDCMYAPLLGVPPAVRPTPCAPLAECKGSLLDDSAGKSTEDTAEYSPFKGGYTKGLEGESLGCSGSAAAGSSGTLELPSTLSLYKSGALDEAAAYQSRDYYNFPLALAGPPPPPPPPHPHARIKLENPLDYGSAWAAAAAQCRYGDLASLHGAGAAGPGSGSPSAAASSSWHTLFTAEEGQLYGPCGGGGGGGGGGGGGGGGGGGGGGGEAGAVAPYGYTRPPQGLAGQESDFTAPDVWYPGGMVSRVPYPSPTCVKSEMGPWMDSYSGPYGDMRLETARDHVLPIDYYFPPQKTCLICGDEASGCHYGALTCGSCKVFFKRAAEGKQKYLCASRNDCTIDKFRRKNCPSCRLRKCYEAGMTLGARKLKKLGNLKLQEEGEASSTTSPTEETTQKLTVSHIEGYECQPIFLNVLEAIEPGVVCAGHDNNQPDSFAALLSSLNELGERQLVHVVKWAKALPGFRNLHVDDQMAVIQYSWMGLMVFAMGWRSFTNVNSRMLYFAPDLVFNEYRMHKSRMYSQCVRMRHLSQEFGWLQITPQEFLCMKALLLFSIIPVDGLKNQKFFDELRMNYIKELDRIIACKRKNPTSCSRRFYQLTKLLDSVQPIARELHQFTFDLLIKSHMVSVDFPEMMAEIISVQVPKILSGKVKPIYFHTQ
The experiment in a line: Androgen Receptor Nuclear Translocation Assay. The data set is classed as cell-based. Conditions: for EC50: agonist mode, PathHunter NHRPro cells, 5 h, read-out: AR Nuclear Translocation Assay Agonist Mode EC50; for IC50: antagonist mode, agonist challenge at EC80, read-out: AR Nuclear Translocation Assay Antagonist Mode IC50. As for the experimental part:
Once it was established that the cells were healthy and growing normally, cells were transferred from flasks using trypsin-free cell dissociation buffer and seeded into white walled clear bottom 384-well microplates for compound profiling. For profiling, cells were seeded at a density of 10,000 cells per well in a total volume of 50 μL and were allowed to adhere and recover overnight prior to compound addition. Media contained charcoal-dextran filtered serum to reduce the level of hormones present.
Agonist Format: Intermediate dilution of compound stocks were generated such that 5.5 μL of 10X compound could be added to each well with a final DMSO concentration of 1% of total volume. For profiling compound in agonist mode, the cells were incubated in the presence of compound at 37° C. for 5 h.
Antagonist Format: Agonist dose curves were performed to determine the EC80 value for the following antagonist testing with compounds. 5.5 μL of 10× agonist was added to each well with an equal concentration of vehicle present. EC80 agonist concentration was determined directly from agonist dose curve. For antagonist determination, cells were pre-incubated with antagonist followed by agonist challenge at the EC80 concentration: 5.5 μL of 10× compound added to cells and incubated at 37° C. for 1 h; 5.5 μL of 11× EC80 agonist added to cells and incubated at 37° C. for 5 h.
Signal Detection: After appropriate compound incubation, assay signal was generated through a single addition of 30 μL (50% v/v) of PathHunter Detection reagent cocktail for agonist and antagonist assays respectively followed by 1 h incubation at room temperature. Microplates were read following signal generation with a PerkinElmer ViewLux™ instrument for chemiluminescent signal detection.
Data Analysis: Dose curves in the presence and absence of compound were plotted using GraphPad Prism.

T1 sequence (P35346 whole entry): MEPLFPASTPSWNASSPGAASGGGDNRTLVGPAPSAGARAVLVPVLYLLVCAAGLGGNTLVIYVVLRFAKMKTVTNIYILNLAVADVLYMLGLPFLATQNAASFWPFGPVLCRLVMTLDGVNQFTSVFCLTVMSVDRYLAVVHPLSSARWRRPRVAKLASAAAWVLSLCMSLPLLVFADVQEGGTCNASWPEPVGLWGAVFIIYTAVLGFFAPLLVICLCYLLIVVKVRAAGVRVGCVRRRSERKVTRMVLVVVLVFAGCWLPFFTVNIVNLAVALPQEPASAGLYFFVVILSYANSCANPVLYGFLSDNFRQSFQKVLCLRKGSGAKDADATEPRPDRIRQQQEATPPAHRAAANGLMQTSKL
T3 sequence (Q01064 whole entry): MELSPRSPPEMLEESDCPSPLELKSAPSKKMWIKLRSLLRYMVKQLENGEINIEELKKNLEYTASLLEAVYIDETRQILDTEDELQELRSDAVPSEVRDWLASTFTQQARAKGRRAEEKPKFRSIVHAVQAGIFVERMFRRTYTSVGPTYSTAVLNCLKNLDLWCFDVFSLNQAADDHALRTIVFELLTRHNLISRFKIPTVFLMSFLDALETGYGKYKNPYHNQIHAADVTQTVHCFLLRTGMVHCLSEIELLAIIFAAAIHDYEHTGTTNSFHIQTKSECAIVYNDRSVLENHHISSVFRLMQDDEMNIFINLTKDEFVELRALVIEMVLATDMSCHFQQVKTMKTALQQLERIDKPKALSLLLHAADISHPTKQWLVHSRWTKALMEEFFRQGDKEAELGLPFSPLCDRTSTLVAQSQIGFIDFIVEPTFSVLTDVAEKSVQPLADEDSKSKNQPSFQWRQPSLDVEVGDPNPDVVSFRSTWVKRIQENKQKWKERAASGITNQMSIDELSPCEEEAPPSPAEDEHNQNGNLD
T5 sequence (P50554 28-500): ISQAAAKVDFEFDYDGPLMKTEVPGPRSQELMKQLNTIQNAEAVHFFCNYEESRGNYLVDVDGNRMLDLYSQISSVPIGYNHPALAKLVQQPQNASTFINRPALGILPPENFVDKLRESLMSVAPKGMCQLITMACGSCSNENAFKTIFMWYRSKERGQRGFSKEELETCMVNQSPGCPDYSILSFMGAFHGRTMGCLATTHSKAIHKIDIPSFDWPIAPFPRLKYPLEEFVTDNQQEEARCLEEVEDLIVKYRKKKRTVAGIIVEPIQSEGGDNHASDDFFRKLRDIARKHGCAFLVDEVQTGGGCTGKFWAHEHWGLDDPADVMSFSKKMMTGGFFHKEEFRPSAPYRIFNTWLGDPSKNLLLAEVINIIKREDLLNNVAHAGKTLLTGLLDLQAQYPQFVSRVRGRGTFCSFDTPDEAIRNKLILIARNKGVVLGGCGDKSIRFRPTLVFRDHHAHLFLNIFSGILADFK
T2 sequence (Q12809 whole entry): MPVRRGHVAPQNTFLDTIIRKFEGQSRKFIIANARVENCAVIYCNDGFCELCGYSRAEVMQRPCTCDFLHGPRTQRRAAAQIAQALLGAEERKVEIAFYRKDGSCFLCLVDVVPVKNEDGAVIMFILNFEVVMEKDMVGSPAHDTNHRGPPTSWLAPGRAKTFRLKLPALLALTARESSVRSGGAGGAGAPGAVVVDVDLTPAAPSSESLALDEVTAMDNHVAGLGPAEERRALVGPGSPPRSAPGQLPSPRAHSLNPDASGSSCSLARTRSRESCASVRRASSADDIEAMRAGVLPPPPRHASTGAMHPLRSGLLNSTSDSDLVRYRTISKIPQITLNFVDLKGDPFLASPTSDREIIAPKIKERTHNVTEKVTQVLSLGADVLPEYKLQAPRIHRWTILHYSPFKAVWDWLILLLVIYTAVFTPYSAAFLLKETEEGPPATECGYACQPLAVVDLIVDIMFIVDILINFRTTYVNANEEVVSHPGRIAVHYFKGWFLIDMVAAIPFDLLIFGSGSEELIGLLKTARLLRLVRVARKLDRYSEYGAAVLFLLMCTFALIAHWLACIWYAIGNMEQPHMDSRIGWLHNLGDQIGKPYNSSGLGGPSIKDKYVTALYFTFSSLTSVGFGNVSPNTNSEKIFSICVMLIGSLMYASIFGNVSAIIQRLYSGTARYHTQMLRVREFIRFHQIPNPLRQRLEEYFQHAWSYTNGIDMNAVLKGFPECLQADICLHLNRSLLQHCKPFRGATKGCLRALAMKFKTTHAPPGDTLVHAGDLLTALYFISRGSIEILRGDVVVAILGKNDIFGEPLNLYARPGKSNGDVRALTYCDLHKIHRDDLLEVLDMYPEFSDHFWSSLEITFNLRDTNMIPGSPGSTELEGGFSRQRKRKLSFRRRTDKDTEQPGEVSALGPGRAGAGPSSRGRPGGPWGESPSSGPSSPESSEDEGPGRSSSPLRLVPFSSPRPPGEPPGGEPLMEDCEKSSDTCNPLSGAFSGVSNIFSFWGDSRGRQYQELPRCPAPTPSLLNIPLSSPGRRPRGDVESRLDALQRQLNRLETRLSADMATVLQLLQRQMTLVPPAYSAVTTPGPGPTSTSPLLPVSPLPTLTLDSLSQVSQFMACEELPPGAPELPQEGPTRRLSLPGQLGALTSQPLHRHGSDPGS

For the compound `CNC(=O)c1ccc(N2C(=O)N(c3ccc(C#N)c(C(F)(F)F)c3)C(=O)C2(C)C)cc1F` [(MIV), 4-(3-(4-cyano-3-(trifluoromethyl)phenyl)-5,5-dimethyl-2,4-dioxoimidazolidin-1-yl)-2-fluoro-N-methylbenzamide], the “% Inhibition of Control Specific Binding @ 10 μM” value (“% Inhibition” for short) in the data set on AMPA is −4%; in the data set with Muscarinic M (ns) it was 25%; with Progesterone PR (h) it was 11%. The inhibition at 10 µM was -7% on Somatostatin sst5 (h); 10% on hERG; -2% on PDE1B (h); 5% at PKCα (h); -1% on GABA transaminase. The EC50 at Androgen Receptor was > 60 µM. Further, the IC50 on Androgen Receptor turned out to be 11.6 µM.
As for `CC1(C)C(=O)N(c2ccc(C#N)c(C(F)(F)F)c2)C(=O)N1c1ccc(C(N)=O)c(F)c1` [(MIII), 4-(3-(4-cyano-3-(trifluoromethyl)phenyl)-5,5-dimethyl-2,4-dioxoimidazolidin-1-yl)-2-fluorobenzamide], the “% Inhibition” value in the data set with AMPA is on record as −2%; in the data set on Muscarinic M (ns), 20%; in the data set with Progesterone PR (h), 8%. The inhibition at 10 µM at Somatostatin sst5 (h) was 2%; on hERG, 8%; on PDE1B (h) it was -8%; at PKCα (h) it was 3%; on GABA transaminase, -2%. Also, the EC50 at Androgen Receptor was > 60 µM. The IC50 at Androgen Receptor was found to be 16.2 µM.
On to `CC1(C)C(=O)N(c2ccc(C#N)c(C(F)(F)F)c2)C(=S)N1c1ccc(C(=O)O)c(F)c1` [(MI), 4-(3-(4-cyano-3-(trifluoromethyl)phenyl)-5,5-dimethyl-4-oxo-2-thioxoimidazolidin-1-yl)-2-fluorobenzoic acid], for which the results for the “% Inhibition” value with AMPA, with Muscarinic M (ns) and in the data set with Progesterone PR (h) were 1%, 18% and 23%, respectively. Moreover, the inhibition at 10 µM at Somatostatin sst5 (h) was -25%; on hERG, -39%; at PDE1B (h), 0%; on PKCα (h), 4%; on GABA transaminase it was -7%. Further, the EC50 on Androgen Receptor is > 60 µM. Besides, the IC50 at Androgen Receptor was > 60 µM.
In the case of `CC1(C)C(=O)N(c2ccc(C#N)c(C(F)(F)F)c2)C(=S)N1c1ccc(C(N)=O)c(F)c1` [(MII), 4-(3-(4-Cyano-3-(trifluoromethyl)phenyl)-5,5-dimethyl-4-oxo-2-thioxoimidazolidin-1-yl)-2-fluorobenzamide], the “% Inhibition” value is reported as −10% in the data set on AMPA, 1% with Muscarinic M (ns) and 74% in the data set on Progesterone PR (h). The inhibition at 10 µM at Somatostatin sst5 (h) is 16%; on hERG, 7%; at PDE1B (h), -11%; on PKCα (h), 6%; on GABA transaminase it was -5%. Moreover, the EC50 on Androgen Receptor was > 60 µM. In addition, the IC50 at Androgen Receptor stood at 3.2 µM.
